Some test systems named below: 786-0 renal; A549 NSCLC; HCT-116 colon; HOP-62 NSCLC; HS 578T breast; SF-268 CNS; SK-MEL-5 melanoma; T-47D breast; UACC-257 melanoma; CCRF-CEM leukemia.
Experiment in all cases: inhibition of tumour cell growth, NCI panel, 48 h

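48-hour exposure; five concentrations; linearly interpolated endpoints. GI50 = concentration required for 50% inhibition of growth. TGI marks complete inhibition of growth.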 Some results are limits rather than exact numbers.

For ten compounds, GI50 and TGI results are on record in PubChem BioAssay (NCI).

In the case of `COc1c2ccoc2c(/C=C/C=O)c2oc(-c3ccccc3)cc(=O)c12`, the GI50 is 26.9 µM in the assay on 786-0 renal; 21.5 µM in the assay with A549 NSCLC; 1.7 µM in the assay with HCT-116 colon; 2.49 µM in the assay with HOP-62 NSCLC; 7.2 µM in the assay on HS 578T breast; 4.23 µM with SF-268 CNS. In addition, the GI50 in the assay with SK-MEL-5 melanoma is 3.04 µM; in the assay on T-47D breast it was 2.14 µM; in the assay on UACC-257 melanoma, 11.5 µM. For the same compound, the TGI with 786-0 renal was more than 100 µM; in the assay with A549 NSCLC, more than 100 µM; in the assay with HCT-116 colon, 4.73 µM; with HOP-62 NSCLC it was 9.48 µM; in the assay with HS 578T breast it was more than 100 µM; with SF-268 CNS, more than 100 µM. For the same compound, the TGI in the assay on SK-MEL-5 melanoma turned out to be 12.3 µM; with T-47D breast, 6.25 µM; in the assay on UACC-257 melanoma it was 24.2 µM.

Turning to `CSCCCN(CCCSC)CCCSC`, the TGI in the assay with 786-0 renal, in the assay with A549 NSCLC, in the assay on CCRF-CEM leukemia, in the assay with HCT-116 colon, in the assay on HOP-62 NSCLC and in the assay on SF-268 CNS was more than 100 µM in each case. The TGI with SK-MEL-5 melanoma, with T-47D breast and with UACC-257 melanoma was more than 100 µM each time.

As for `O=c1cc(-c2cccc(O)c2)[nH]c2cc3c(cc12)OCO3`, the TGI with 786-0 renal was more than 69.9 µM; in the assay with A549 NSCLC it was more than 100 µM; with CCRF-CEM leukemia, more than 100 µM; in the assay with HCT-116 colon, more than 100 µM; with HOP-62 NSCLC it was 14.7 µM; in the assay on SF-268 CNS it was more than 69.6 µM. Besides, the TGI with SK-MEL-5 melanoma is 5.01 µM; in the assay with T-47D breast it was more than 100 µM; in the assay on UACC-257 melanoma, more than 100 µM.

Regarding `COc1ccc(C2=CSc3cc(Cl)c(C)cc3S(=O)(=O)N2C(C)=O)cc1`, the GI50 in the assay on 786-0 renal was 39.1 µM; with A549 NSCLC, 27.4 µM; with CCRF-CEM leukemia, 38.6 µM; with HCT-116 colon it was 21.3 µM; with HOP-62 NSCLC, 47.2 µM; with HS 578T breast, 55.2 µM. Further, the GI50 in the assay with SF-268 CNS was 29.1 µM; with SK-MEL-5 melanoma, 19.9 µM; with UACC-257 melanoma, 36.2 µM. Besides, the TGI in the assay on 786-0 renal was more than 100 µM; in the assay with A549 NSCLC, 65 µM; in the assay on CCRF-CEM leukemia it was more than 100 µM; with HCT-116 colon, 52.5 µM; in the assay with HOP-62 NSCLC it was more than 100 µM; in the assay with HS 578T breast it was more than 100 µM. The figures for the TGI with SF-268 CNS, in the assay with SK-MEL-5 melanoma and with UACC-257 melanoma were more than 100 µM, 48.5 µM and more than 100 µM, respectively.

`CNC(=O)c1cc(Oc2ccc3nc(NC(=O)Nc4ccc(Cl)c(C(F)(F)F)c4)sc3c2)ccn1`: the GI50 is 1.79 µM in the assay with 786-0 renal; 1.89 µM in the assay with HCT-116 colon; 1.94 µM with HOP-62 NSCLC; 1.53 µM in the assay with HS 578T breast; 2.34 µM in the assay with SF-268 CNS; 0.723 µM in the assay with T-47D breast. In the assay on UACC-257 melanoma, the GI50 was 3.37 µM. Moreover, the TGI with 786-0 renal was 3.4 µM; with HCT-116 colon it was 5.39 µM; in the assay on HOP-62 NSCLC, 4.74 µM; in the assay with HS 578T breast it was 6.27 µM; with SF-268 CNS it was 16.4 µM; in the assay with T-47D breast, 3.65 µM. Further, the TGI in the assay on UACC-257 melanoma was more than 100 µM.

`CC1=C(C#N)C23C(=O)c4ccccc4C(O)=C2C(=O)C=CC3(O)N1Cc1ccccc1` (centres undefined): the GI50 is 44.5 µM with 786-0 renal; 72.2 µM in the assay with A549 NSCLC; 34.8 µM in the assay with HCT-116 colon; 49.9 µM with HOP-62 NSCLC; 26.2 µM in the assay on HS 578T breast; 40.3 µM in the assay on SF-268 CNS. Further, the GI50 in the assay on SK-MEL-5 melanoma is 18 µM; in the assay on T-47D breast it was 25.8 µM; with UACC-257 melanoma, 35 µM. Further, the TGI in the assay with 786-0 renal, in the assay on A549 NSCLC, with HCT-116 colon, in the assay on HOP-62 NSCLC, with HS 578T breast and in the assay on SF-268 CNS was more than 100 µM throughout. In addition, the TGI is 61.5 µM with SK-MEL-5 melanoma, 71.6 µM with T-47D breast and more than 100 µM with UACC-257 melanoma.

Consider `CCCCCCCC(=O)SCC/C=C/[C@@H]1CC(=O)NCc2cccc(n2)C2=N[C@@](C)(CS2)C(=O)N[C@@H](C(C)C)C(=O)N1`, for which the GI50 with 786-0 renal is 5.52 µM; in the assay with A549 NSCLC, 0.723 µM; in the assay on CCRF-CEM leukemia, 1.47 µM; in the assay on HCT-116 colon, 0.166 µM; in the assay with HOP-62 NSCLC, 1.07 µM; with HS 578T breast it was 0.378 µM. Further, the GI50 in the assay with SF-268 CNS is 2.28 µM; in the assay on SK-MEL-5 melanoma, 0.924 µM; in the assay on T-47D breast, 0.412 µM. Further, the TGI is more than 33.3 µM with 786-0 renal; more than 33.3 µM with A549 NSCLC; more than 33.3 µM in the assay with CCRF-CEM leukemia; 5.09 µM in the assay on HCT-116 colon; more than 33.3 µM in the assay on HOP-62 NSCLC; more than 33.3 µM in the assay on HS 578T breast. The figures for the TGI in the assay on SF-268 CNS, in the assay with SK-MEL-5 melanoma and with T-47D breast were more than 33.3 µM, 8.35 µM and 3 µM, respectively.

As to `O=C(O)c1cc(C(=O)O)cc(N2C(=O)c3ccccc3C2=O)c1`, the TGI in the assay with 786-0 renal, in the assay with A549 NSCLC, in the assay on HCT-116 colon, in the assay with HOP-62 NSCLC, in the assay with HS 578T breast and in the assay on SF-268 CNS was more than 100 µM in each case. Further, the TGI in the assay with SK-MEL-5 melanoma, in the assay with T-47D breast and with UACC-257 melanoma was more than 100 µM throughout.

With `COc1ccc2c(c1)C(=O)/C(=C/c1ccc(OCC(=O)Nc3nccs3)cc1)O2`, the GI50 in the assay on 786-0 renal was 0.237 µM; in the assay with A549 NSCLC, 1.76 µM; with CCRF-CEM leukemia it was 0.183 µM; in the assay on HCT-116 colon it was 2.75 µM; in the assay on HOP-62 NSCLC it was 0.491 µM; in the assay with HS 578T breast it was 9.23 µM. Moreover, the GI50 with SK-MEL-5 melanoma was 2.93 µM; with T-47D breast, 7.05 µM; with UACC-257 melanoma, 18 µM. Moreover, the TGI was 0.563 µM in the assay on 786-0 renal; 16 µM in the assay with A549 NSCLC; 10.7 µM in the assay with HCT-116 colon; 26 µM in the assay on HOP-62 NSCLC; more than 63.8 µM with HS 578T breast; 16.3 µM in the assay with SK-MEL-5 melanoma. The TGI in the assay with T-47D breast is 31.9 µM; in the assay on UACC-257 melanoma, 36.6 µM.

As to `O[C@H]1[C@H]2c3cc4c(cc3CN3CCC(=C[C@@H]1O)[C@H]23)OCO4`, the TGI in the assay on 786-0 renal was more than 34 µM; in the assay on A549 NSCLC, 13.1 µM; in the assay on CCRF-CEM leukemia, 7.51 µM; with HCT-116 colon, more than 100 µM; in the assay with HOP-62 NSCLC it was more than 27.4 µM; in the assay on HS 578T breast, more than 28.4 µM. For the same compound, the TGI with SF-268 CNS is 3.57 µM; with SK-MEL-5 melanoma it was 6.91 µM; in the assay on T-47D breast, more than 21.3 µM.
